Laboratory results as given in US20120093947A1, “METHOD OF TREATING REACTIVE AIRWAY DISEASE” (UNITED STATES DEPARTMENT OF VETERANS AFFAIRS, priority 2009, published 2012).
Structures can show the parent of a compound that is named as a salt. One block for each molecule: values may come before it.

Tests used:
LPO = target: T1, LPO (Bos taurus, UniProt P80025); experiment: Nitration of salbutamol by LPO/H2O2/NO2−, A410; format: biochemical, bovine; conditions: 100 μM salbutamol, 67 nM LPO, 4 mM H2O2, 3.5 mM NaNO2
T1 construct: Lactoperoxidase (LPO) from bovine milk (EC 1.11.1.7); purchased Sigma-Aldrich Co. (St. Louis, Mo.); host or cells: bovine milk (natural source)
Description: Spectrophotometric Measurements. Spectra are measured using an Agilent diode array spectrophotometer model 8453 (Agilent Technologies, Inc., Santa Clara, Calif.). Nitration of salbutamol is studied by measuring absorption spectra at designated time points following the start of the reaction. Samples are prepared in 100 mM phosphate buffers (pH 7.0). All buffers contained DTPA (100 μM) or are pretreated with Chelex-100 before use, and measurements are performed at ambient temperature of 20° C. Typically, the reaction is started by the addition of a small aliquot of H2O2 or the desired peroxidase. Time course measurements are carried out following changes in absorbance at 410 nm in 30 second intervals versus absorbance at 800 nm, where none of the compounds absorb.
Ascorbate (AscH^−) is an effective natural antioxidant protecting airways from oxidative injury. Cross et al., (1994) Environ. Health Perspect. 102 (suppl. 10):185-191. Its concentration in the respiratory tract lining fluid is estimated to be near 100 μM (Id.). We examine the effect of AscH^− on nitration of 100 μM salbutamol by 67 nM LPO, 4 mM H2O2, and 3.5 mM of NaNO2 by measuring absorption at 410 nm. […] The duration of the lag period depends on AscH^− concentration. […] See, e.g., Reszka et al. (1999) Free Radic. Biol. & Med. 26:669-678.
As noted earlier, methimazole is an antithyroid drug, an effective inhibitor of LPO activity. 100 μM of salbutamol is reacted with 73 nM LPO, 3.5 mM NaNO2, and 4 mM H2O2 at pH buffer 7.0 in the presence of 0, 27, 55, and 109 μM methimazole (shown in FIG. 9, section A, traces a-d, respectively). Traces c and d also indicate by arrow when additional LPO is added to the system. […] In contrast to effects exerted by AscH^− or SCN^−, methimazole-dependent inhibition is permanent and is probably due to inactivation of the enzyme, since a second dose of LPO reactivates the process (FIG. 9, section A, trace c).
Dapsone, an anti-inflammatory and anti-leprotic agent, is a potent inhibitor of LPO and MPO. See, e.g., Kettle et al. (1991) Biochem. Pharmacol. 41(10):1485-1492; Bozeman et al. (1992) Biochem. Pharmacol. 44(2):553-563. 97 μM of salbutamol is reacted with 65 nM LPO, 3.4 mM NaNO2, and 4 mM H2O2 at pH buffer 7.0 in the presence of 0, 2.5, 5, 10, 50, and 100 μM dapsone (shown in FIG. 10, traces a-f, respectively). The arrows in traces d and e of FIG. 10 indicate where additional LPO is added to the system. […] Dapsone at 50 μM inhibited nitration by approximately 86%. Given the high concentrations of NaNO2 and H2O2 used in this system, dapsone appears to be a potent blocker of nitration.
The extent of nitration is expressed as a change in ΔA410 versus control (dapsone omitted) taken as 100% after 10, 30, and 60 minute reactions for LPO, MPO, and EPO nitrating systems, respectively. Results equal the means±SE of at least two measurements. In the LPO system, 100 μM of salbutamol, 3.4 mM of NaNO2, 4 mM of H2O2, and 65 nM of LPO is used. In the MPO system, 50 μM of salbutamol, 5.0 mM of NaNO2, 5 mM of H2O2, and 0.2 U/mL of MPO is used. In the EPO system, 50 μM of salbutamol, 5 mM of NaNO2, 2 mM of H2O2, and 0.075 U/mL of EPO is used. All reactions were carried out in pH 7.0 phosphate buffer containing DMSO (5% v/v). The term “nitrophenols” includes nitrosalbutamol (N-Sal) and salbutamol-derived nitrophenol (N—ArOH).

MPO [1] = target: T2, MPO (Homo sapiens, UniProt P05164); experiment: Oxidation of β2-agonists by MPO/H2O2, spectrophotometric ΔA315; format: biochemical; parameters: Myeloperoxidase (MPO) from human leucocytes (lyophilized powder); purchased Axxora, LLC (San Diego, Calif.); host or cells: human leucocytes (natural source); conditions: 100 μM AscH−, 200 mU/mL MPO, 50 μM H2O2
T2 sequence (P05164 279-745 limits assumed): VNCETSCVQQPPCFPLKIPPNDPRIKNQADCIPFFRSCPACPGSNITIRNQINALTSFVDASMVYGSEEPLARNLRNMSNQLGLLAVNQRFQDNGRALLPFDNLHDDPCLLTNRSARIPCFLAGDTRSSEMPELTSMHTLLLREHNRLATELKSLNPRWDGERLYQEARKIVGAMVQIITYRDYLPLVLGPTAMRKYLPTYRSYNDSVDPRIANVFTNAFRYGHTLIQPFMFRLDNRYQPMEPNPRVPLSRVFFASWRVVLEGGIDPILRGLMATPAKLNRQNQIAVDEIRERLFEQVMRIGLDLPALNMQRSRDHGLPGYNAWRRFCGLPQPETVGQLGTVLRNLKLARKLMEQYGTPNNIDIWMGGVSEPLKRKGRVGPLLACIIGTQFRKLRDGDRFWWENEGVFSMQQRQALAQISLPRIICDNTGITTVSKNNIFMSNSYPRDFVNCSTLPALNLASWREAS
T2 sequence (P05164 165-273 limits assumed): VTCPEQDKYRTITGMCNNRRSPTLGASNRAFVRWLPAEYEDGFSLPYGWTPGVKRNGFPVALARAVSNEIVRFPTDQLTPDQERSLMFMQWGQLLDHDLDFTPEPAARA
Description: Spectrophotometric Measurements. Spectra are measured using an Agilent diode array spectrophotometer model 8453 (Agilent Technologies, Inc., Santa Clara, Calif.). Oxidation of β2-agonists is studied by measuring absorption spectra at designated time points following reaction starts. Samples are prepared in 50 mM acetate buffer (pH 5.0), 50 and 100 mM phosphate buffers (pH 7.0 and 8.0) and 100 mM Tris/HCl (pH 9.19). All buffers contain DTPA (100 and 200 μM) and measurements are performed at an ambient temperature of 20° C. The reaction is started by the addition of a small aliquot of H2O2 (2, 5 or 10 μL), or glucose oxidase (1 μL), if glucose/glucose oxidase was used to generate H2O2, to a sample containing a studied compound, peroxidase and, if required, an inhibiting co-factor. Time course measurements are carried out following changes in absorbance at 315 nm in 15 second intervals versus absorbance at 800 nm, where none of the compounds absorb. The 315 nm wavelength is chosen because β2-agonists' oxidation products absorb intensely near 315 nm, and because it is close to the absorption maximum of tyrosine dimers.
The concentration of AscH^− in airway fluid was estimated to be near 100 μM (Id.), so we use concentrations within this physiological range. […] AscH^− affects oxidation of salbutamol and fenoterol similarly, causing delay in the net oxidation of both drugs. A315 increases after a lag period, the duration of which depends on AscH^− concentration. Net oxidation of the drugs occurs only when AscH^− is consumed. […] This is understandable given that the concentration of H2O2 was only 50 μM and the peroxide was used to oxidize both the drugs and AscH^−. […] The proposed mechanisms of inhibition are reactions A and B, shown below, which reveal that recovery of the drug occurs at the expense of AscH^−, which is oxidized to the ascorbate radical (A^•−).
[…]. The extent of oxidation is expressed as ΔA315±SE versus control (in %) during 22 minutes of reaction at 20° C. Values are the mean of at least duplicate determinations.

MPO [2] = target: T2, MPO; experiment: EPR spin trapping of GS radicals (DMPO/SG adduct) with MPO/H2O2; format: biochemical; parameters: Myeloperoxidase (MPO) from human leucocytes (lyophilized powder); purchased Axxora, LLC (San Diego, Calif.); conditions: 2 μM fenoterol, 4 mM GSH, 18 mM DMPO, pH 7.0
Description: (§1) The sample is transferred to a flat aqueous EPR cell and recording is started one minute after initiation of the reaction. The spectra of DMPO adducts are recorded using the same parameters as above but the sweeping rate is 8 mT/41.92 s. The EPR spectra of ascorbate radicals are obtained using microwave power 5 mW, modulation amplitude 0.05 mT, scan rate 4 mT/41.92 s. EPR spectra shown are an average of 5 scans and represent results of a typical experiment.
Spectrum e is the same reaction as spectrum d with the exception that no GSH is used.
The EPR spectrum generated in the presence of 2 μM fenoterol (FIG. 3, section B, spectrum a) is approximately a two-fold more intense than that observed in the presence of 80 μM salbutamol (FIG. 3, section A, spectrum b). This confirms the higher reactivity of a metabolite(s) derived from fenoterol. […] The higher stimulatory action of fenoterol, when compared to that of salbutamol, implies that the compound's resorcinol moiety may play a dominating role in the interaction with GSH. The proposed cycle of redox reactions involving fenoterol, AscH^− and GSH is depicted in reaction B, presented earlier.

MPO [3] = target: T2, MPO; experiment: EPR of ascorbate radicals during oxidation of β2-agonists by MPO/H2O2; format: biochemical; parameters: Myeloperoxidase (MPO) from human leucocytes (lyophilized powder); purchased Axxora, LLC (San Diego, Calif.); host or cells: human leucocytes (natural source); conditions: 100 μM ascorbate, MPO 0.01 U/250 μL, H2O2 39 μM, pH 7.0
Description: as §1
Formation of Asc^•− during oxidation of β2-agonists by MPO/H2O2 in the presence of 100 μM AscH^− is investigated by EPR. […] Spectrum A is the EPR of 100 μM ascorbate without additives. Sprectrun B is the EPR spectrum of 100 μM ascorbate in the presence of MPO (0.01 U/250 μL) and H2O2 (39 μM). Spectra C and D are the EPR spectra of 100 μM ascorbate in the presence of MPO (0.01 U/250 μ), H2O2 (39 μM), and 40 μM and 100 μM of salbutamol, respectily. Spectrum E is the EPR spectrum of 100 μM ascorbate in the presence of MPO (0.01 U/250 μL), H2O2 (39 μM) and 20 μM of fenoterol. All reactions occur in pH 7.0 buffer (50 mM) containing DTPA (0.2 mM).

[4] = system: murine airway smooth muscle cells; experiment: cAMP production in airway smooth muscle cells, fluorescent detection assay; format: cell-based; conditions: 15 minutes, read-out: EC50, stimulation of cAMP synthesis
Description: For these studies, cells are grown to near-confluence in 96-well plates. After washing with PBS, cells were treated for 15 minutes with either PBS vehicle or the indicated concentration of isoproterenol. The reaction is then halted using the supplied stop buffer, after which the resultant sample is processed for fluorescent detection per the manufacturer's instructions. The cAMP content for each sample is determined by extrapolating values to a standard curve prepared with known concentrations of cAMP.

[5] = human
Description: Exhaled breath condensate (“EBC”) samples. EBC samples are collected during 10 min of quiet breathing through a single-use disposable RTube collector (Respiratory Research, Inc., Charlottesville, Va., USA) while subjects are wearing a nose clip. The aluminum sleeve of the device is cooled to an initial temperature of −20° C. prior to collection. After collection, a plunger is used to pool the condensed material within the tube into a single sample (about 1.0 ml). Samples are stored in the reaction tube at a temperature of −80° C. until thawed and processed for analysis.
Mass Spectrometry. The experiment is performed on a Thermo Fisher Scientific LTQ-FT, a hybrid instrument consisting of a linear ion trap and a Fourier transform ion cyclotron resonance mass spectrometer. Liquid chromatography separation of the sample components utilizes a Waters XBridge™ C18 3.5 μm 2.1×100 mm column, Finnigan Surveyor MS pump, and Finnigan Micro AS autosampler. A 200 μL/min gradient elution of water and acetonitrile, both containing 0.1% formic acid, occurs as follows: 5% to 32% acetonitrile in first eight minutes followed by a rapid rise to 95% acetonitrile within the next minute, held at 95% for an additional seven minutes. […]

Nitration of salbutamol by LPO/H2O2/NO2− (A410 versus time) (LPO; AscH− at near physiological concentrations (55, 88, 109 μM)): only transiently inhibits
Nitration of salbutamol by LPO/H2O2/NO2− (A410 versus time) (LPO; ascorbate ˜1 mM): completely prevents
Oxidation of fenoterol by MPO/H2O2 (A315 versus time) (MPO [1]; 200 μM fenoterol): completely inhibited
Oxidation of salbutamol by MPO/H2O2 (A315 versus time) (MPO [1]; 1 mM salbutamol): completely inhibited
Molecule: O=C1O[C@H]([C@@H](O)CO)C(O)=C1O [AscH^−, ascorbic acid]

Molecule: CC(Cc1ccc(O)cc1)NCC(O)c1cc(O)cc(O)c1 (stereo not shown) [fenoterol, fenoterol hydrobromide]
EPR spectrum of DMPO/SG adduct, intensity relative to 80 μM salbutamol (MPO [2]): two-fold
EPR spectrum of ascorbate radical, more intense than with MPO/H2O2 alone (MPO [3]; 20 μM fenoterol): 270%

EC50 [4]: 24.8 nM
Salbutamol transformation in vivo (nitrophenol of m/z 255.13 in breath condensate) [5]: undergoes oxidation and nitration
EPR spectrum of ascorbate radical, more intense than with MPO/H2O2 alone (MPO [3]; 40 μM salbutamol): approximately 76%
EPR spectrum of ascorbate radical, more intense than with MPO/H2O2 alone (MPO [3]; 100 μM salbutamol): ~117%
Molecule: Salbutamol hemisulfate
